Data taken from PubChem BioAssay (NCI).
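How tested: cells in 96-well plates exposed to compound for 48 hours at five concentrations. At the GI50, growth is halved. The concentration for full growth arrest is given as TGI.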

How the values were obtained:
Experiment in all cases: NCI tumour cell line growth inhibition, 48 h
[1] = test system: 786-0 renal
[2] = test system: A498 renal
[3] = test system: A549 NSCLC
[4] = test system: ACHN renal
[5] = test system: BT-549 breast
[6] = test system: CAKI-1 renal
[7] = test system: CCRF-CEM leukemia
[8] = test system: COLO 205 colon
[9] = test system: DU-145 prostate
[10] = test system: EKVX NSCLC
[11] = test system: HCC-2998 colon
[12] = test system: HCT-116 colon
[13] = test system: HCT-15 colon
[14] = test system: HOP-62 NSCLC
[15] = test system: HOP-92 NSCLC
[16] = test system: HS 578T breast
[17] = test system: HT29 colon
[18] = test system: IGROV1 ovarian
[19] = test system: KM12 colon
[20] = test system: LOX IMVI melanoma
[21] = test system: M14 melanoma
[22] = test system: MALME-3M melanoma
[23] = test system: MCF7 breast
[24] = test system: MDA-MB-231 breast
[25] = test system: MDA-MB-435
[26] = test system: MOLT-4 leukemia
[27] = test system: NCI-H226 lung
[28] = test system: NCI-H23 lung
[29] = test system: NCI-H460 lung
[30] = test system: NCI-H522 lung
[31] = test system: NCI/ADR-RES ovarian
[32] = test system: OVCAR-3 ovarian
[33] = test system: OVCAR-4 ovarian
[34] = test system: OVCAR-5 ovarian
[35] = test system: OVCAR-8 ovarian
[36] = test system: PC-3 prostate
[37] = test system: RPMI-8226 leukemia
[38] = test system: RXF 393 renal
[39] = test system: SF-268 CNS
[40] = test system: SF-295 CNS
[41] = test system: SF-539 CNS
[42] = test system: SK-MEL-2 melanoma
[43] = test system: SK-MEL-28 melanoma
[44] = test system: SK-MEL-5 melanoma
[45] = test system: SK-OV-3 ovarian
[46] = test system: SN12C renal
[47] = test system: SNB-19 CNS
[48] = test system: SNB-75 CNS
[49] = test system: SW-620 colon
[50] = test system: T-47D breast
[51] = test system: TK-10 renal
[52] = test system: U251 CNS
[53] = test system: UACC-257 melanoma
[54] = test system: UACC-62 melanoma
[55] = test system: UO-31 renal

Compound: C=C(CNCCc1ccc(O)cc1)[C@@H]1CC[C@]2(CO)CC[C@]3(C)[C@H](CC[C@@H]4[C@@]5(C)CCC(NCCO)C(C)(C)[C@@H]5CC[C@]43C)[C@@H]12 (stereo not given in full)
- GI50 [1]: 1250 nM
- TGI [1]: 2580 nM
- GI50 [2]: 1720 nM
- TGI [2]: 3.72 µM
- GI50 [3]: 1700 nM
- TGI [3]: 3.12 µM
- GI50 [4]: 1790 nM
- TGI [4]: 3.2 µM
- GI50 [5]: 1500 nM
- TGI [5]: 3.15 µM
- GI50 [6]: 1650 nM
- TGI [6]: 3.29 µM
- GI50 [7]: 433 nM
- TGI [7]: 1920 nM
- GI50 [8]: 1540 nM
- TGI [8]: 3.13 µM
- GI50 [9]: 1600 nM
- TGI [9]: 3.04 µM
- GI50 [10]: 1600 nM
- TGI [10]: 3.41 µM
- GI50 [11]: 1570 nM
- TGI [11]: 3.21 µM
- GI50 [12]: 351 nM
- TGI [12]: 1190 nM
- GI50 [13]: 1570 nM
- TGI [13]: 3.37 µM
- GI50 [14]: 1640 nM
- TGI [14]: 3.23 µM
- GI50 [15]: 1090 nM
- TGI [15]: 2410 nM
- GI50 [16]: 1690 nM
- TGI [16]: 3.85 µM
- GI50 [17]: 395 nM
- TGI [17]: 1570 nM
- GI50 [18]: 1940 nM
- TGI [18]: 3.9 µM
- GI50 [19]: 1660 nM
- TGI [19]: 3.16 µM
- GI50 [20]: 1390 nM
- TGI [20]: 2880 nM
- GI50 [21]: 1610 nM
- TGI [21]: 3.13 µM
- GI50 [22]: 1540 nM
- TGI [22]: 3.08 µM
- GI50 [23]: 400 nM
- TGI [23]: 1760 nM
- GI50 [24]: 1330 nM
- TGI [24]: 2740 nM
- GI50 [25]: 1510 nM
- TGI [25]: 2970 nM
- GI50 [26]: 657 nM
- TGI [26]: 2920 nM
- GI50 [27]: 2000 nM
- TGI [27]: 4.31 µM
- GI50 [28]: 1780 nM
- TGI [28]: 3.49 µM
- GI50 [29]: 1750 nM
- TGI [29]: 3.29 µM
- GI50 [30]: 1810 nM
- TGI [30]: 3.56 µM
- GI50 [31]: 2090 nM
- TGI [31]: 4.88 µM
- GI50 [32]: 1730 nM
- TGI [32]: 3.51 µM
- GI50 [33]: 1400 nM
- TGI [33]: 3.17 µM
- GI50 [34]: 1670 nM
- TGI [34]: 3.31 µM
- GI50 [35]: 1790 nM
- TGI [35]: 3.22 µM
- GI50 [36]: 1600 nM
- TGI [36]: 3.29 µM
- GI50 [37]: 1430 nM
- TGI [37]: 4 µM
- GI50 [38]: 1270 nM
- TGI [38]: 2630 nM
- GI50 [39]: 1570 nM
- TGI [39]: 3.23 µM
- GI50 [40]: 1720 nM
- TGI [40]: 3.34 µM
- GI50 [41]: 1500 nM
- TGI [41]: 2870 nM
- GI50 [42]: 1790 nM
- TGI [42]: 3.38 µM
- GI50 [43]: 1810 nM
- TGI [43]: 3.38 µM
- GI50 [44]: 1730 nM
- TGI [44]: 3.21 µM
- GI50 [45]: 1850 nM
- TGI [45]: 3.52 µM
- GI50 [46]: 1750 nM
- TGI [46]: 3.25 µM
- GI50 [47]: 1630 nM
- TGI [47]: 3.03 µM
- GI50 [48]: 1240 nM
- TGI [48]: 2520 nM
- GI50 [49]: 1270 nM
- TGI [49]: 2680 nM
- GI50 [50]: 1790 nM
- TGI [50]: 3.96 µM
- GI50 [51]: 1700 nM
- TGI [51]: 3.14 µM
- GI50 [52]: 1060 nM
- TGI [52]: 2240 nM
- GI50 [53]: 1860 nM
- TGI [53]: 3.27 µM
- GI50 [54]: 1790 nM
- TGI [54]: 3.3 µM
- GI50 [55]: 1470 nM
- TGI [55]: 2860 nM
